Series [1] deals with Mice. The following applies: chronic administration; Berton et al., Science (2006); cited from earlier work.
In another series the target is H1 (Homo sapiens, UniProt P35367). In words: H1 receptor affinity (off-target). The series is classed as binding.
For a further series, the system named is muscarinic receptors. In words: Muscarinic receptor affinity. The series is classed as binding.
For series [2], the system named is healthy volunteer and clinical populations. In words: Safety and tolerability in healthy volunteer and clinical populations. Format: in vivo, human. The text has this:
Physical Risks: Side effects are listed in the informed consent and reviewed carefully with the subject.
(§1) Pregnant or nursing women are excluded and men and women of childbearing potential use birth control.

The nature of series [3]: Randomized, double-blind, placebo-controlled single oral dose escalation study (safety, tolerability, pharmacokinetics). Format: in vivo, human. The note with it: male, human, plasma; oral administration.
From the text: as §1

Series [4] deals with healthy male volunteers. The series is described as above. The series is classed as in vivo, human.
From the text: as §1

Series [5] has as its system healthy male volunteers. The experiment in a line: Placebo-controlled multiple oral dose study, once daily for 5 days. Format: in vivo, human.
From the text: as §1

Series [6] has as its target cytochrome P450 3A4 (CYP3A4) (Homo sapiens, UniProt P08684). The experiment in a line: Metabolism by cytochrome P450. Format: in vitro ADME.
For a further series, the system named is any CYP enzyme. In words: CYP enzyme inhibition. The series is classed as in vitro ADME.
Series [7] deals with veterans with non-remitting posttraumatic stress disorder. In words: Open label study of Compound A as adjunctive treatment to SSRI in non-remitting PTSD. Format: in vivo, human. The method, then: The target dose is 40 mg/d, but the dose is reduced to 20 mg/d as needed due to side effects. The study medication is stored and dispensed by the TVAMC pharmacy. The baseline SSRI medication is continued throughout the 12-wks study.
Baseline Procedures and Follow-up Assessments: Subjects are assessed by the investigators or trained clinical research coordinators with telephone contacts every two weeks and the assessments (indicated in the Table below) every four weeks.
Clinician Administered PTSD Scale (CAPS; Primary Outcome): A structured clinician-administered interview is used to assess frequency and intensity of 17 symptoms of PTSD. The CAPS is further subdivided into three clusters to allow scoring for Criterion B (re-experiencing), Criterion C (avoidant behaviors) and Criterion D (hyper-arousal). […]
In addition to change scores, rates of response (≥30% decrease in CAPS) and remission ([…]) are determined Within-group effect sizes using Cohen's d for the continuous outcomes is determined. The number needed to treat (NNT) for response and remission rates is determined. […]

The test system of series [8] is Mice. In words: Social defeat/resident intruder paradigm, social isolation behavior. Format: in vivo. As for the experimental part:
Mice are tested for social isolation behavior after repeated exposure (once daily for 10 days) to an aggressive resident intruder mouse in the social defeat/resident intruder paradigm as describe by Berton et al., Science (2006) 311:864-868, the contents of which are incorporated by reference. […] On the day after the last drug or vehicle treatment, the mice are placed in the open field in the presence of a resident intruder mouse and the animal's behavior recorded by videotape for 10 min. The videotapes are then scored for the total time each mouse spent during a 10 min period in specified open-field quadrants. The total time (sec) spent by mice representing each drug treatment group in the Interaction Zone in proximity to the resident intruder mouse or, in the Corner Zones, at a distance from the intruder mouse is expressed as a mean (±SEM).
In the experiment described or similarly described above, mice are subjected to exposure to an aggressive resident intruder mouse in the social defeat/resident intruder paradigm as described in Berton et al., Science (2006) 311:864-868. […] On the day after the last drug or vehicle treatment the mice are placed in the open field in the presence of a resident intruder mouse and the total time each mouse spent during a 10 min period in defined open-field quadrants in close proximity to the intruder or in isolation to the intruder is measured.

The target in the next series is 5-HT2C receptor (Homo sapiens, UniProt P28335). The following applies: read-out: 5-HT2C Ki.
[9] abbreviates: chronic treatment 1 mg/kg IP, 30 d.

Bounds are passed on as bounds.

H1, sequence (P35367 whole entry): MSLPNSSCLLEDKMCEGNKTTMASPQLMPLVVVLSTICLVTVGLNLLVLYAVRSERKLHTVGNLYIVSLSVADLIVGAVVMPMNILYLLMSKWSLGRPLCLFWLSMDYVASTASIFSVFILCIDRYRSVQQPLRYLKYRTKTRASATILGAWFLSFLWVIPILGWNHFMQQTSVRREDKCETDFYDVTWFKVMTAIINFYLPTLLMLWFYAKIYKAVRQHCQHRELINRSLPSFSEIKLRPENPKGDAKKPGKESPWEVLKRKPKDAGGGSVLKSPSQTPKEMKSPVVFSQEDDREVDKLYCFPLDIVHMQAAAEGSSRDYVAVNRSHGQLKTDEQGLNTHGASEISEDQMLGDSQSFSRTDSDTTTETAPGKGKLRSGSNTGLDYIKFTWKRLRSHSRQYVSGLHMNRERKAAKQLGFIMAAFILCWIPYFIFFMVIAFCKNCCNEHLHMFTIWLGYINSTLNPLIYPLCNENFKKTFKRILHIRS
cytochrome P450 3A4 (CYP3A4), sequence (P08684 whole entry): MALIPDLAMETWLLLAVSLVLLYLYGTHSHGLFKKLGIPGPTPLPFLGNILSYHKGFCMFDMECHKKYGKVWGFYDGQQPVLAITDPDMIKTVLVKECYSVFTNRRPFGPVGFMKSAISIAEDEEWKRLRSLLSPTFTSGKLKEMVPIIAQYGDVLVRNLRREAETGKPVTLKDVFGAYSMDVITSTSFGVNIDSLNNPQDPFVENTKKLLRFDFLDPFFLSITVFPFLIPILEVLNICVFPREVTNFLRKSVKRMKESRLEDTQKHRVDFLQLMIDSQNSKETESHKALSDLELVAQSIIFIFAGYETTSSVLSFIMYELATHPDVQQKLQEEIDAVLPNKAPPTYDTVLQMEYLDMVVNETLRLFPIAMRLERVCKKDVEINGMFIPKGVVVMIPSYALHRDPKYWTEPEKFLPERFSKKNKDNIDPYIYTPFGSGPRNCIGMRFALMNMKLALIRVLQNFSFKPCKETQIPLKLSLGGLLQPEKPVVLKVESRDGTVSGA
5-HT2C receptor, sequence (P28335 33-458): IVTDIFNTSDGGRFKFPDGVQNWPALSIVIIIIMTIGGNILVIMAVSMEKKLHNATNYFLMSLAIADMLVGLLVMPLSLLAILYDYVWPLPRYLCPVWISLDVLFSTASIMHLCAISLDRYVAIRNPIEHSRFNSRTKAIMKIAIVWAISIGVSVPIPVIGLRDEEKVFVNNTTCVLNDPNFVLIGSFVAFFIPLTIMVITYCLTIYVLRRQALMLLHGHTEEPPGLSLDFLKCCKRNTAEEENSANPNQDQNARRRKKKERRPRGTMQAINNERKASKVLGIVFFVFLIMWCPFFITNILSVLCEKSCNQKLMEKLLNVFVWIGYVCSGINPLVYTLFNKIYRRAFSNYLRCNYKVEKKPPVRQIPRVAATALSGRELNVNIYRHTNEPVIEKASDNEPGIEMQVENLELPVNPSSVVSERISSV

For `CNCCC(Oc1ccc(C(F)(F)F)cc1)c1ccccc1` (stereo not drawn) [fluoxetine], the “isolation behavior in social defeat/resident intruder model” value in the series with Mice [1] is “reversed”.
As to `CN1CCN2c3c(cccc31)[C@@H]1CN(CCCC(=O)c3ccc(F)cc3)CC[C@@H]12` [Compound A], the Ki – broadly, the equilibrium dissociation constant of an inhibitor or competing ligand from its target – on H1 is over 1000 nM. For the same molecule, the “affinity for muscarinic receptors” value in the series on muscarinic receptors is “no affinity”. In series [2] (headache, dizziness, postural tachycardia, dry mouth, gastrointestinal complaints, somnolence), the “severity of adverse events” value is given as “mild to moderate”. In addition, in [2] (human, in vivo), the hyper-prolactinemia entry was “does not produce hyper-prolactinemia” and the sexual dysfunction entry was “no reports of sexual dysfunction”. In addition, the safety and tolerability result in series [2] (range of doses 1-140 mg) is “safe and well-tolerated”. The “cardiovascular side effects such as postural hypotension” value in series [2] (related to alpha 1A activity, to date) was “not been associated with any cardiovascular side effects”. In addition, the Tmax – broadly, the time at which the peak concentration occurs – in [3] was about 1 h. For the same molecule, in the series with healthy male volunteers [4] (oral administration of increasing doses), the “dose dependence of pharmacokinetics” value is on record as “dose-proportional linear pharmacokentics”. Besides, in the series with healthy male volunteers [4] (single oral doses 2.5-30.0 mg), the QTc result was “no significant increase”, the “changes in 12-lead ECG or 24-hour Holter-ECG” value is listed as “no clinically significant changes”, the “changes in vital signs or clinical laboratory” value is listed as “no dose-related clinically relevant changes” and the serious adverse events result was “no serious adverse events”. In addition, the “severity of adverse events” value with healthy male volunteers [4] (single oral doses 2.5-30.0 mg) is given as “mild to moderate”. In addition, the safety and tolerability entry in the series on healthy male volunteers [4] (single oral doses of 2.5, 5.0, 10.0, 20.0 and 30.0 mg) is “safe and tolerated”. In addition, the “accumulation in plasma with repeated administration” value in the series on healthy male volunteers [5] (Day 5 vs Day 1 pharmacokinetics) is recorded as “no accumulation”. In addition, the safety and tolerability result in the series on healthy male volunteers [5] (multiple oral doses of 5, 10 and 20 mg once daily for 5 days) was “safe and well tolerated”. Moreover, the metabolizing enzyme result in series [6] is “metabolized predominantly by cytochrome P450 3A4 (CYP3A4)”. Also, the CYP inhibition result with any CYP enzyme was “not a potent inhibitor”. For the same molecule, in [7] (adjunctive to SSRI, 12 weeks), the “efficacy for treatment of PTSD” value was “effective”. In series [7] (baseline to end of 12-week treatment, 20-40 mg/d adjunctive to SSRI), the “change in rating scale scores (CAPS, QIDS-SR, CGI-I, PANSS, SDS)” value was “significant decline”. For the same molecule, in the series on Mice [8] (1 mg/kg IP once daily for 30 d, no defeat, compared with untreated control mice), the “time spent in the Interaction Zone, treatment alone” value is “did not result in differences”. For the same molecule, the “time spent in proximity to the intruder after exposure to the intruder paradigm” value with Mice [8] (1 mg/kg IP once daily for 30 d, compared with Compound A alone) is on record as “no significant reduction”. Also, in the series with Mice [8] (setting [9]), the “effect on social defeat behavior” value is given as “reversal of social defeat behavior” and the functional anti-depressant activity result is recorded as “has functional anti-depressant activity”. The Ki on 5-HT2C receptor came out at 173 nM.
